According to publication PMC5471438, “Linaclotide activates guanylate cyclase‐C/cGMP/protein kinase‐II‐dependent trafficking of CFTR in the intestine” (Physiological Reports, 2017):
Entries after “also recorded” stand apart in the source; their conditions may differ.

Experiments:
[1] = tested on: GC‐C/cGMP pathway; details: modulated by MRP4; ref Tchernychev et al. 2015; cited from earlier work
Text: The cystic fibrosis transmembrane conductance regulator (CFTR) is a cyclic adenosine monophosphate (cAMP) and cGMP‐regulated anion‐selective channel that is expressed on the apical domain of intestinal epithelial cells where it serves as the main conductive pathway for Cl^− and HCO3 ^− ions transported across the membrane into the lumen (Riordan et al. 1989; Anderson et al. 1991; Vaandrager et al. 1997).

[2] = tested on: rat jejunum; test: Fluid secretion in ligated rat jejunal loops in vivo; design: species or system rat (Sprague–Dawley); details: linaclotide 5 μg/mL/loop, 30 min, vs saline (1 mL)
Procedure: All animal studies were approved by the Institutional Animal Care and Use Committee of Yale University School of Medicine. Briefly, male Sprague–Dawley rats (200–250 g, Charles River Laboratories) were fasted overnight with access to drinking water ad libitum. Anesthesia was performed with Inactin® (Thiobutabarbital sodium salt hydrate, 120 mg/kg/i.p.). The jejunal, ileal, and proximal colonic loops (5 cm length) were prepared using sutures. Loops were instilled either with normal saline (pH7.4, 37°C) (1 mL/loop) or linaclotide (5 μg/mL/loop) for 30 min. At the end of the study, animals were euthanized with Inactin (200 mg/kg/i.p.).
The guanylate cyclase‐C (GC‐C) agonist linaclotide stimulates the production and accumulation of intracellular cGMP, which acts as a second messenger to enhance fluid secretion in the intestine (Schulz et al. 1990; Busby et al. 2013). We first tested whether linaclotide can enhance fluid secretion in vivo in the rat small intestine. Following anesthesia and laparotomy, intestinal loops were created in rat jejunum and injected either with vehicle (saline, 1 mL) or linaclotide (5 μg/1 mL). […] In this study, we examined whether linaclotide treatment also stimulates fluid secretion by recruiting CFTR to the apical surface of rat jejunum enterocytes in vivo. […]

[3] = tested on: human colonic mucosa; test: Transepithelial short circuit current (Isc) across human ascending colonic mucosa, Ussing chamber; details: human ascending colon, linaclotide 30 nmol/L and 1000 nmol/L, apical, pH 7.4, 37°C; mean ± SEM (n = 12)

For linaclotide, the transepithelial electrolyte secretion [1] is given as “increased transepithelial electrolyte secretion across the mucosa”, the “fluid secretion in jejunal loop” value [2] is given as “robust fluid secretion; also recorded: distended and tightly filled with fluid; also recorded: robust increase in fluid accumulation in jejunum loops” and the “linaclotide-induced transepithelial ion current (Isc)” value [3] is given as “induced transepithelial ion current at concentrations of 30 nmol/L and 1000 nmol/L”.
